Measurements as given in PubChem BioAssay AID248 (DTP/NCI, 2004).
Values joined by “and” are separate entries in the source; they are usually repeats but may differ in a detail not shown here. Equal entries are not always repeated. Toxic doses and inconclusive results are not listed. Rule as the data show it: active = T/C of 150% or more; inactive = T/C below 125%.

Tested on: L1210 leukemia ip in BDF1 mice, survival T/C
Experiment: NCI In Vivo Anticancer Drug Screen. Data for tumor model L1210 Leukemia (intraperitoneal) in B6D2F1 (BDF1) mice
Settings: endpoint: mean survival time, higher = longer survival
Summary of the method: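 Value reflects the ratio of survival in compound-treated mice to survival in vehicle-treated controls, with both groups carrying the same transplanted tumor.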

[1] = dose: 100.0 mg/kg/injection, schedule: Q04DX003 (ip), vehicle: Klucel (hydroxypropylcellulose) (HPC)
[2] = dose: 50.0 mg/kg/injection, schedule: Q01DX009 (ip), vehicle: Klucel (hydroxypropylcellulose) (HPC)
[3] = dose: 100.0 mg/kg/injection, schedule: Q01DX009 (ip), vehicle: Klucel (hydroxypropylcellulose) (HPC)
[4] = dose: 100.0 mg/kg/injection, schedule: Q01DX001 (ip), vehicle: other
[5] = dose: 200.0 mg/kg/injection, schedule: Q01DX001 (ip), vehicle: other
[6] = dose: 400.0 mg/kg/injection, schedule: Q01DX001 (ip), vehicle: other
[7] = dose: 100.0 mg/kg/injection, schedule: Q01DX001 (ip), vehicle: saline with Tween-80
[8] = dose: 200.0 mg/kg/injection, schedule: Q01DX001 (ip), vehicle: saline with Tween-80
[9] = dose: 100.0 mg/kg/injection, schedule: Q01DX001 (ip), vehicle: carboxymethylcellulose (CMC)

Measured: T/C

CCOC(=O)C1=NN(c2ccccc2)C(=O)C1N=Nc1c(Br)cc(S(N)(=O)=O)cc1Br (configuration not stated)
inactive: dose: 100.0 mg/kg/injection, schedule: Q01DX001 (ip), vehicle: saline 96 % of control | dose: 200.0 mg/kg/injection, schedule: Q01DX001 (ip), vehicle: saline 101 % of control | dose: 400.0 mg/kg/injection, schedule: Q01DX001 (ip), vehicle: saline 98 % of control

CC(=O)Nc1cc(Cl)ccc1Cl
inactive: [1] 102 % of control | dose: 200.0 mg/kg/injection, schedule: Q04DX003 (ip), vehicle: Klucel (hydroxypropylcellulose) (HPC) 88 % of control | dose: 400.0 mg/kg/injection, schedule: Q04DX003 (ip), vehicle: Klucel (hydroxypropylcellulose) (HPC) 102 % of control

CN1CCN(c2ccc(Cl)cc2)CC1
inactive: dose: 25.0 mg/kg/injection, schedule: Q01DX009 (ip), vehicle: Klucel (hydroxypropylcellulose) (HPC) 97 % of control | dose: 25.0 mg/kg/injection, schedule: Q04DX003 (ip), vehicle: Klucel (hydroxypropylcellulose) (HPC) 97 % of control | [2] 106 % of control | dose: 50.0 mg/kg/injection, schedule: Q04DX003 (ip), vehicle: Klucel (hydroxypropylcellulose) (HPC) 105 % of control | [3] 100 % of control | [1] 106 % of control

CCOC(=O)N1C2C(c3ccccc3)=NC(C)(C)N2C(c2ccc([N+](=O)[O-])cc2)N1C(=O)OCC (configuration not stated)
inactive: [4] 93 % of control | [5] 102 % of control | [6] 91 % of control

COC(=O)c1ccccc1N(C)C(=O)c1cc(OC)c(OC)c(OC)c1
inactive: dose: 100.0 mg/kg/injection, schedule: Q04DX002 (ip), vehicle: saline with Tween-80 108 % of control | dose: 200.0 mg/kg/injection, schedule: Q04DX002 (ip), vehicle: saline with Tween-80 94 % of control | dose: 400.0 mg/kg/injection, schedule: Q04DX002 (ip), vehicle: saline with Tween-80 91 % of control

CCCCCCCCC(=O)[O][Hg][c]1ccccc1
inactive: dose: 75.0 mg/kg/injection, schedule: Q01DX001 (ip), vehicle: other 106 % of control

Cc1ccc(N=Nc2ccc(C)cc2NC(=O)Nc2cccc(F)c2)cc1
inactive: dose: 100.0 mg/kg/injection, schedule: Q01DX009 (ip), vehicle: saline with Tween-80 90 % of control | dose: 200.0 mg/kg/injection, schedule: Q01DX009 (ip), vehicle: saline with Tween-80 90 % of control | dose: 400.0 mg/kg/injection, schedule: Q01DX009 (ip), vehicle: saline with Tween-80 98 % of control

CCOC(C)C(/C=N/NC(N)=S)=NNC(N)=S (configuration not stated)
inactive: dose: 15.0 mg/kg/injection, schedule: Q01DX010 (ip), vehicle: saline 95 % of control | dose: 15.0 mg/kg/injection, schedule: Q01DX Z (ip), vehicle: carboxymethylcellulose (CMC) 101 % of control | dose: 30.0 mg/kg/injection, schedule: Q01DX010 (ip), vehicle: saline 89 % of control | dose: 30.0 mg/kg/injection, schedule: Q01DX Z (ip), vehicle: carboxymethylcellulose (CMC) 95 % of control | dose: 60.0 mg/kg/injection, schedule: Q01DX010 (ip), vehicle: saline 92 % of control | dose: 60.0 mg/kg/injection, schedule: Q01DX Z (ip), vehicle: carboxymethylcellulose (CMC) 100 % of control and 102 % of control | dose: 60.0 mg/kg/injection, schedule: Q01DX Z (oral), vehicle: carboxymethylcellulose (CMC) 100 % of control | dose: 120.0 mg/kg/injection, schedule: Q01DX Z (ip), vehicle: carboxymethylcellulose (CMC) 93 % of control and 103 % of control | dose: 120.0 mg/kg/injection, schedule: Q01DX Z (oral), vehicle: carboxymethylcellulose (CMC) 106 % of control | dose: 240.0 mg/kg/injection, schedule: Q01DX Z (oral), vehicle: carboxymethylcellulose (CMC) 93 % of control

CCCCCSc1nccc(N)n1
inactive: [7] 97 % of control | [8] 103 % of control

CC(C)(C)C1CCC(N=C(N)CS)CC1 (configuration not stated)
inactive: dose: 1.5 mg/kg/injection, schedule: Q01DX001 (ip), vehicle: carboxymethylcellulose (CMC) 98 % of control | dose: 3.0 mg/kg/injection, schedule: Q01DX001 (ip), vehicle: carboxymethylcellulose (CMC) 98 % of control | dose: 6.0 mg/kg/injection, schedule: Q01DX001 (ip), vehicle: carboxymethylcellulose (CMC) 95 % of control

OC(CNc1ccccc1)CN1CCOCC1 (configuration not stated)
inactive: [4] 101 % of control | dose: 100.0 mg/kg/injection, schedule: Q04DX003 (ip), vehicle: saline 100 % of control | [5] 96 % of control | dose: 200.0 mg/kg/injection, schedule: Q04DX003 (ip), vehicle: saline 94 % of control | [6] 105 % of control | dose: 400.0 mg/kg/injection, schedule: Q04DX003 (ip), vehicle: saline 94 % of control

CCN(CC)CCNC(Cc1ccccc1)c1cccc(OC)c1 (configuration not stated)
inactive: [9] 96 % of control

Nc1[nH][nH]c(=O)c1N
inactive: [2] 117 % of control | [3] 100 % of control | dose: 200.0 mg/kg/injection, schedule: Q01DX009 (ip), vehicle: Klucel (hydroxypropylcellulose) (HPC) 100 % of control

O=C(O)c1sccc1-c1cccc2ccccc12
inactive: dose: 50.0 mg/kg/injection, schedule: Q01DX001 (ip), vehicle: Klucel (hydroxypropylcellulose) (HPC) 94 % of control | dose: 100.0 mg/kg/injection, schedule: Q01DX001 (ip), vehicle: Klucel (hydroxypropylcellulose) (HPC) 96 % of control | dose: 200.0 mg/kg/injection, schedule: Q01DX001 (ip), vehicle: Klucel (hydroxypropylcellulose) (HPC) 94 % of control

O/N=C/c1c(O)cccc1Cl
inactive: dose: 75.0 mg/kg/injection, schedule: Q01DX001 (ip), vehicle: acetone 102 % of control | dose: 150.0 mg/kg/injection, schedule: Q01DX001 (ip), vehicle: acetone 91 % of control

COc1cc(NCCCCCNC(C)C)c2ncccc2c1
inactive: dose: 5.0 mg/kg/injection, schedule: Q04DX002 (ip), vehicle: saline with Tween-80 100 % of control | dose: 10.0 mg/kg/injection, schedule: Q04DX002 (ip), vehicle: saline with Tween-80 97 % of control | dose: 20.0 mg/kg/injection, schedule: Q04DX002 (ip), vehicle: saline with Tween-80 100 % of control

Cc1ccc(CC(=O)N2CCOCC2)cc1
inactive: [9] 106 % of control | dose: 200.0 mg/kg/injection, schedule: Q01DX001 (ip), vehicle: carboxymethylcellulose (CMC) 97 % of control | dose: 400.0 mg/kg/injection, schedule: Q01DX001 (ip), vehicle: carboxymethylcellulose (CMC) 92 % of control

O=c1ccsc(=S)[nH]1
inactive: [7] 101 % of control | [8] 104 % of control | dose: 400.0 mg/kg/injection, schedule: Q01DX001 (ip), vehicle: saline with Tween-80 97 % of control

CCOC(=O)CC1=NCCc2cc(OC)c(OC)cc21
inactive: dose: 25.0 mg/kg/injection, schedule: Q04DX002 (ip), vehicle: Klucel (hydroxypropylcellulose) (HPC) 102 % of control | dose: 50.0 mg/kg/injection, schedule: Q04DX002 (ip), vehicle: Klucel (hydroxypropylcellulose) (HPC) 99 % of control | dose: 100.0 mg/kg/injection, schedule: Q04DX002 (ip), vehicle: Klucel (hydroxypropylcellulose) (HPC) 96 % of control

c1ccc(-n2nc3c(c2-c2ccc(OCCN4CCCC4)cc2)CCCc2ccccc2-3)cc1
inactive: dose: 100.0 mg/kg/injection, schedule: Q04DX003 (ip), vehicle: saline with Tween-80 88 % of control

CCCCC(C)(C)COC(=O)Nc1ccccc1
inactive: dose: 100.0 mg/kg/injection, schedule: Q04DX003 (ip), vehicle: other 92 % of control | dose: 200.0 mg/kg/injection, schedule: Q04DX003 (ip), vehicle: other 104 % of control | dose: 400.0 mg/kg/injection, schedule: Q04DX003 (ip), vehicle: other 101 % of control

Cc1ccc2c(ccc3c[n+]4c5ccccc5ccc4n32)c1
inactive: dose: 5.0 mg/kg/injection, schedule: Q01DX001 (ip), vehicle: saline 97 % of control | dose: 10.0 mg/kg/injection, schedule: Q01DX001 (ip), vehicle: saline 100 % of control | dose: 20.0 mg/kg/injection, schedule: Q01DX001 (ip), vehicle: saline 101 % of control | dose: 40.0 mg/kg/injection, schedule: Q01DX001 (ip), vehicle: saline 117 % of control
